Assay: Photochromic response rates on an optical bench (polymer test squares)
Format: physicochemical
Details: for ΔOD@ SATURATION: UV exposure continued for 20 minutes, test square; for ΔOD@ SATURATION / ΔOD/MIN SENSITIVITY: 75° F. (23.9° C.); for ΔOD/MIN SENSITIVITY: measured over first five (5) seconds of UV exposure, expressed per minute, BPA 2EO DMA / poly(ethyleneglycol) 600 dimethacrylate test square; for Bleach (T1/2): time for absorbance of activated form to reach one half the highest absorbance, room temperature (75° F., 23.9° C.), after removal of activating light; for LAMBDA MAX (VISIBLE): wavelength of maximum absorption of the activated (colored) form, in a diethylene glycol bis(allyl carbonate) composition
Experimental: Testing was done with the photochromic naphthopyrans of the Examples incorporated into polymeric samples by the following method. The quantity of naphthopyran calculated to yield a 1.5 times 10^-3 molal solution was added to a flask containing 50 grams of a monomer blend of 4 parts ethoxylated bisphenol A dimethacrylate (BPA 2EO DMA), 1 part poly(ethyleneglycol) 600 dimethacrylate, and 0.033 weight percent 2,2'-azobis(2-methyl propionitrile) (AIBN). The naphthopyran was dissolved into the monomer blend by stirring and gentle heating, if necessary. After a clear solution was obtained, it was poured into a flat sheet mold having the interior dimensions of 2.2 mm×6 inches (15.24 cm)×6 inches (15.24 cm). The mold was sealed and placed in a horizontal air flow, programmable oven set to increase the temperature from 40° C. to 95° C. over a 5 hour interval, hold the temperature at 95° C. for 3 hours and then lower it to 60° C. for at least 2 hours before the end of the curing cycle. After the mold was opened, the polymer sheet was cut using a diamond blade saw into 2 inch (5.1 centimeters) test squares.
The photochromic test squares prepared in Part A were tested for photochromic response rates on an optical bench. […] The bench was fitted with a 150 watt Xenon arc lamp, a remote controlled shutter, a copper sulfate bath acting as a heat sink for the arc lamp, a Schott WG-320 nm cut-off filter which removes short wavelength radiation; neutral density filter(s) and a sample holder in which the square to be tested was inserted. A collimated beam of light from a tungsten lamp was passed through the square at a small angle normal to the square. After passing through the square, the light from the tungsten lamp was directed through a photopic filter attached to a detector. The photopic filter passes wavelengths such that the detector mimics the response of the human eye. The output signals from the detector(s) were processed by a radiometer.
Change in optical density (ΔOD) was determined by inserting a test square in the bleached state into the sample holder, adjusting the transmittance scale to 100%, opening the shutter from the Xenon lamp to provide ultraviolet radiation to change the test square from the bleached state to an activated (i.e., darkened) state, measuring the transmittance in the activated state, and calculating the change in optical density according to the formula Δ OD=log(100/%Ta) where %Ta is the percent transmittance in the activated state and the logarithm is to the base 10.
The Δ OD/Min, which represents the sensitivity of the photochromic compound's response to UV light, was measured over the first five (5) seconds of UV exposure, then expressed on a per minute basis. The saturation optical density (OD) was taken under identical conditions as the Δ OD/Min, except UV exposure was continued for 20 minutes for the examples in Table 1. The lambda max reported in Table 1 is the wavelength in the visible spectrum at which the maximum absorption of the activated (colored) form of the photochromic compound in a diethylene glycol bis(allyl carbonate) composition occurs.

SMILES	ΔOD@ SATURATION	ΔOD/MIN SENSITIVITY	Bleach (T1/2) [min]	LAMBDA MAX (VISIBLE)	bleach rate, i.e., fade rate (in words) (conclusion from Table 1)
COc1ccc(C2(c3ccc(OC)cc3)C=Cc3c(CO)c(C)c4ccc(OC)cc4c3O2)cc1 [Example 1, 2,2-bis(4-methoxyphenyl)-5-hydroxymethyl-6-methyl-9-methoxy-2H-naphtho[1,2-b]pyran]	0.42	0.38 ΔOD/MIN	5.05	520	
COc1ccc(C2(c3ccc(OC)cc3)C=Cc3c(CO)c(-c4ccccc4)c4ccccc4c3O2)cc1 [Example 2, 2,2-bis(4-methoxyphenyl)-5-hydroxymethyl-6-phenyl-2H-naphtho[1,2-b]pyran]	0.26	0.32 ΔOD/MIN	2.48	506	
COc1ccc(C2(c3ccc(OC)cc3)C=Cc3c(COC(C)=O)c(-c4ccccc4)c4ccccc4c3O2)cc1 [Example 3, 2,2-bis(4-methoxyphenyl)-5-acetoxymethyl-6-phenyl-2H-naphtho[1,2-b]pyran]	0.25	0.33 ΔOD/MIN	1.82	508	
COc1ccc(C2(c3ccc4c(c3)CCO4)C=Cc3c(C(=O)N4CCCCC4)c(C)c4ccc(OC)cc4c3O2)cc1 (centres unmarked) [Example 4, 2-(4-methoxyphenyl)-2-(2,3-dihydrobenzofuran-5-yl)-5-piperidinocarbonyl-6-methyl-9-methoxy-2H-naphtho[1,2-b]pyran]	0.65	0.34 ΔOD/MIN	> 13.3	535	fades much slower

From patent publication US5656206A, “Substituted naphthopyrans” (Transitions Optical, Inc., priority 1995, dated 1997)
